Reference: ChEMBL document CHEMBL1138984, “Identification of phosphodiesterase-1 and 5 dual inhibitors by a ligand-based virtual screening optimized for lead evolution” (Bioorg Med Chem Lett, 2006)

What was measured:
Phosphodiesterase 1 [1] = target: T1, Phosphodiesterase 1 (Homo sapiens, UniProt P54750+Q01064+Q14123); assay: Inhibition of PDE1; format: protein assay
[2] = target: T2, cGMP-specific 3',5'-cyclic phosphodiesterase (Homo sapiens, UniProt O76074); assay: Inhibition of PDE5
[3] = target: T2, cGMP-specific 3',5'-cyclic phosphodiesterase; assay: Inhibition of PDE5 at 10 uM; parameters: scale not given: the % may be the effect or the level left
Phosphodiesterase 1 [4] = target: T1, Phosphodiesterase 1; assay: Inhibition of PDE1 at 10 uM; format: protein assay; parameters: scale not given: the % may be the effect or the level left

With `N#Cc1c(C(F)(F)F)cc(-c2cccs2)nc1SCc1ccc(C(=O)O)cc1` the IC50 (Phosphodiesterase 1 [1]) was 1.9 µM and the IC50 [2] was 0.7 µM.
`COc1ccc(-c2nc(NC(=O)CSCC(=O)O)sc2C)cc1` showed an Activity [3] of 51% and an Activity (Phosphodiesterase 1 [4]) of 21%.
With `COc1ccccc1Nc1nc(-c2sc(N)nc2C)cs1` the IC50 (Phosphodiesterase 1 [1]) was 2.5 µM and the IC50 [2] was 3 µM.
`NS(=O)(=O)c1ccc(-c2ccc(/C=C3/C(=O)NN(c4cccc(C(F)(F)F)c4)C3=O)o2)cc1` gave an Activity [3] of 66% and an Activity (Phosphodiesterase 1 [4]) of 45%.
For `Cc1ccc(-c2cc(C(=O)Nc3ccc(S(N)(=O)=O)cc3)c3ccccc3n2)s1`, the IC50 (Phosphodiesterase 1 [1]) was 2.5 µM and the IC50 [2] was 6.3 µM.
`COc1cc(C2CC(=O)NC(SCC(=O)Nc3ccc(Br)cc3)=C2C#N)ccc1O` (stereo not drawn) was tested, and the Activity [3] was 23% and the Activity (Phosphodiesterase 1 [4]) was 25%.
Work on `Cc1cc(C)nc(NS(=O)(=O)c2ccc(NC(=O)c3cccc(NC(=O)C(F)(F)F)c3)cc2)n1` yielded an Activity [3] of 44% and an Activity (Phosphodiesterase 1 [4]) of 15%.
In the case of `CCOc1ccc2nc(SCC(=O)NCc3ccc(C(=O)O)cc3)sc2c1`, the Activity [3] is reported as 39% and the Activity (Phosphodiesterase 1 [4]) is reported as 12%.
Work on `COc1cc(/C=C2\SC(=S)N(CC(=O)O)C2=O)ccc1OC(=O)c1cccs1` yielded an Activity [3] of 46% and an Activity (Phosphodiesterase 1 [4]) of 59%.
For `N#Cc1c(/N=C/c2ccc(-c3ccc(C(=O)O)cc3)o2)sc2c1CCCC2`, the IC50 (Phosphodiesterase 1 [1]) was 2.5 µM and the IC50 [2] was 2.1 µM.
In the case of `O=C(CSc1nnc(-c2ccccc2O)o1)NNC(=O)Cc1ccccc1`, the Activity [3] is reported as 1% and the Activity (Phosphodiesterase 1 [4]) is reported as 22%.
With `O=C(O)c1ccc(-c2ccc(-c3nc(O)c4c5c(sc4n3)CCCC5)o2)cc1` the IC50 (Phosphodiesterase 1 [1]) was 3.7 µM and the IC50 [2] was 3.1 µM.
`Cn1c(=O)[nH]c(=O)c2c1nc(S)n2CC(O)COc1ccc2ccccc2c1` (stereo not drawn) was tested, and the IC50 (Phosphodiesterase 1 [1]) was 0.3 µM and the IC50 [2] was 8.7 µM.
With `N#CC1=C(N)OC2=C(C(=O)CCC2)C1c1ccc(OCC(=O)Nc2cccc(C(F)(F)F)c2)cc1` (stereo not drawn) the Activity [3] was 52% and the Activity (Phosphodiesterase 1 [4]) was 9%.
Compound `Cc1cccc(NCc2n[nH]c(SCC(=O)Nc3cc([N+](=O)[O-])ccc3Cl)n2)c1` has an Activity [3] of 53% and an Activity (Phosphodiesterase 1 [4]) of 22%.
`Cc1cc(C(=O)Nc2cccc(C(=O)O)c2)cc(S(=O)(=O)Nc2cccc(C(=O)O)c2)c1C` gave an Activity [3] of 19% and an Activity (Phosphodiesterase 1 [4]) of 49%.
Work on `Cc1oc(C(=O)N2CCCC2C(=O)O)cc1COc1ccc2oc3ccccc3c2c1` (stereo not drawn) yielded an Activity [3] of 48% and an Activity (Phosphodiesterase 1 [4]) of 42%.
Work on `COc1ccc(-c2csc(-n3[nH]c(C)c(C(c4ccccc4)C(C#N)C(N)=O)c3=O)n2)cc1` (stereo not drawn) yielded an Activity [3] of 42% and an Activity (Phosphodiesterase 1 [4]) of 9%.
In the case of `N#Cc1c(N)nc(SCC(=O)Nc2ccc(F)cc2)c(C#N)c1-c1ccccc1`, the IC50 (Phosphodiesterase 1 [1]) is reported as 5.7 µM and the IC50 [2] is reported as 1.7 µM.
